Assay results as given in Sander's compilation of Henry's law constants (doi:10.1002/jsfa.1137).

Experiment: Henry solubility constant Hcp at 310 K (mol/(m3 Pa))
Settings: reference: van Ruth et al. (2002)
In the case of CCCCCCO [1-hexanol], the “Henry solubility constant Hcp at 310 K” value is reported as 0.25. In the case of CCCO [1-propanol], the “Henry solubility constant Hcp at 310 K” value is reported as 0.32. With CCCCCCCCC(C)=O [2-decanone] the “Henry solubility constant Hcp at 310 K” value was 0.018. In the case of CCCCCC(C)=O [2-heptanone], the “Henry solubility constant Hcp at 310 K” value is reported as 0.039. For CCCCCCCC(C)O (stereo not given) [2-nonanol], the “Henry solubility constant Hcp at 310 K” value was 0.065. In the case of CCCCCCC(C)=O [2-octanone], the “Henry solubility constant Hcp at 310 K” value is reported as 0.029. In the case of CCCC(C)O (stereo not given) [2-pentanol], the “Henry solubility constant Hcp at 310 K” value is reported as 0.3. In the case of CC(C)CCO [3-methyl-1-butanol], the “Henry solubility constant Hcp at 310 K” value is reported as 0.33. In the case of CCCCOC(C)=O [butyl ethanoate], the “Henry solubility constant Hcp at 310 K” value is reported as 0.028. With CSC [dimethyl sulfide] the “Henry solubility constant Hcp at 310 K” value was 0.0064. In the case of CCCC(=O)OCC [ethyl butanoate], the “Henry solubility constant Hcp at 310 K” value is reported as 0.021. With CCOC(C)=O [ethyl ethanoate] the “Henry solubility constant Hcp at 310 K” value was 0.039. In the case of CCCCCCC=O [heptanal], the “Henry solubility constant Hcp at 310 K” value is reported as 0.02. With CCCCCCCC=O [octanal] the “Henry solubility constant Hcp at 310 K” value was 0.021. With CCCOC(C)=O [propyl ethanoate] the “Henry solubility constant Hcp at 310 K” value was 0.039.
